Data as given in article PMC10590756, “Glutarate regulates T cell metabolism and anti-tumour immunity” (Nature Metabolism, 2023).

Assays:
human CD8^+ T cells = assay: Memory populations (CCR7/CD45RO) of human CD8^+ T cells by flow cytometry; format: cell-based
Procedure: This contrasts with octyl ester S-2HG, which decreases cell growth from 400 µM (Extended Data Fig. 1c).
Human PBMCs were obtained from NHSBT: Addenbrooke’s Hospital, Cambridge, UK or the Karolinska Hospital Service, Sweden. Ethical approval was obtained from the East of England-Cambridge Central Research Ethics Committee (06/Q0108/281) and consent was obtained from all participants. PBMCs from healthy donors were isolated from blood using discontinuous plasma Percoll gradients. Naive CD8^+ T cells were isolated using the Naive CD8^+ T Cell Isolation Kit (catalogue no. 130-093-244, Miltenyi Biotec), in accordance with the manufacturer’s instructions. Total CD8^+ T cells were purified by either positive or negative magnetic bead sorting (catalogue nos. 130-045-201 and 130-096-495, Miltenyi Biotec). All human CD8^+ T cells were activated with anti-human CD3/CD28 Dynabeads (catalogue no. 11131D, Thermo Fisher Scientific) at a 1:1 cell:bead ratio and cultured in complete RPMI 1640 supplemented with 10% FCS, 100 U ml^−1 penicillin, 100 µg ml^−1 streptomycin and 30 U ml^−1 interleukin-2 (IL-2) (catalogue no. 11147528001, Sigma-Aldrich).
Single-cell suspensions were stained with LIVE/DEAD Fixable Near-IR Dead Cell Stain Kit (catalogue no. 10119, Thermo Fisher Scientific) followed by surface and intracellular staining with fluorochrome-labelled antibodies (Supplementary Tables 1 and 2). Staining of cytoplasmic and nuclear antigens was performed using the Cytofix/Cytoperm Fixation/Permeabilization Kit (catalogue no. 554714, BD Biosciences) and the Transcription Factor Buffer Set (catalogue no. 562725, BD Biosciences), respectively. For the proliferation assays, cells were loaded with CellTrace Violet (catalogue no. C34557, Thermo Fisher Scientific) according to the manufacturer’s instructions. Samples were acquired on an Aurora (Cytek Biosciences).

[1] = system: HIF-P4H activity against pFLAG-Gal4-mHIF-1α NTAD; assay: HIF-PH activity luciferase reporter assay in MEFs; format: cell-based, mouse
From the text: To test HIF-P4H inhibition via DEG treatment in a cellular system, we used a luciferase reporter assay driven by a Gal4 response element (GRE-luc), pFLAG-Gal4-mHIF-1α N-terminal transcription activation domain (NTAD)[35]. The NTAD contains proline residues that are hydroxylated by HIF-P4H enzymes to target the protein for degradation; thus, luciferase expression in this assay is controlled by HIF-P4H hydroxylation activity against the pFLAG-Gal4-mHIF-1α NTAD.
MEFs were transiently transfected using Lipofectamine 2000 (Thermo Fisher Scientific) with 20 ng per expression plasmid for 2 × 10^4 cells per well in a 96-well plate. Cells were treated with transfection mixes for 8 h.
Generation of plasmids for the HIF-PH activity luciferase reporter assay has been described previously: luciferase reporter driven by GRE-luc pFLAG-Gal4-mHIF-1α NTAD[35]. […] After 8 h of transient transfection with expression plasmids, cells were treated with experimental medium containing metabolites and drugs as described in the figure legends for 16 h; then, the luciferase signal assessed using the Steady-Glo Luciferase Assay System (Promega Corporation) detected using a luminometer. […]

human TET2 enzyme = target: T1, human TET2 enzyme (Homo sapiens, UniProt Q6N021); assay: Cell-free TET2 enzymatic activity assay; format: biochemical
T1 construct: purchased BPS Bioscience 50162
Procedure: A total of 2 nM of the human TET2 enzyme (catalogue no. 50162, BPS Bioscience) or 4 nM of the human KDM4C enzyme (catalogue no. 50105, BPS Bioscience) was incubated with the substrate of 30 nM single-stranded DNA (ssBiotin 26 nt Me-C Oligo, Genscript), in the presence of αKG (catalogue no. K3752, Sigma-Aldrich), 10 µM ammonium iron(II) sulphate hexahydrate (catalogue no. F3754, Sigma-Aldrich) in assay buffer (50 mM HEPES (catalogue no. 15630-080, Gibco), pH 7.0, 100 mM NaCl, 0.01% Pluronic F-127, 1 mM TCEP (S16054, Shanghai Yuanye Bio-Technology Company), 2 mM ascorbic acid (A5960, Sigma-Aldrich), 0.2 mg/ml BSA (catalogue no. B2064, Sigma-Aldrich) and 1,000 U ml^−1 catalase (catalogue no. C40, Sigma-Aldrich)). The concentration of αKG used for the TET2 standard and competitive assays was 115 µM and 4,500 µM, respectively. The concentration of αKG used for the KDM4C standard and competitive assays was 10 µM and 50 µM, respectively. The concentration of αKG used in the standard assay was calculated for each enzyme batch and is the concentration of substrate at which half the maximum reaction rate is achieved. DEG and glutaric acid were used in threefold serial dilution and the maximum concentration used was 5 mM. The pre-incubation time of the inhibitors with the TET2 mixture was 30 min at room temperature. The reaction step was at room temperature for 90 min. The product was detected by using a 5 nM anti-5hmC antibody (catalogue no. 39999, Active Motif), 5 nM Eu-Protein A (catalogue no. 61PRAKLB, Cisbio), 6.25 nM streptavidin-Alexa Fluor 647 (catalogue no. S21374, Thermo Fisher Scientific) and 10 mM EDTA (catalogue no. 0369, Sigma-Aldrich). For the standard curve, the ssBiotin 26 nt HydMe-C Oligo was used. The assays were performed in technical duplicates in a 384-well plate. Inhibitor analysis was performed within the linear range of catalysis.
The percentage of inhibition was calculated with the following formula: inhibition% = (1−(signal value per well−average low control)/(average high control−average low control)) × 100. Data were fitted using Prism (GraphPad Software) with a four-parameter equation via ‘log(inhibitor) versus response−variable slope’ model.

human KDM4C enzyme = target: T2, human KDM4C enzyme (Homo sapiens, UniProt Q9H3R0); assay: Cell-free KDM4C enzymatic activity assay; format: biochemical
T2 construct: purchased BPS Bioscience 50105
T2 sequence (Q9H3R0 2-372 limits assumed): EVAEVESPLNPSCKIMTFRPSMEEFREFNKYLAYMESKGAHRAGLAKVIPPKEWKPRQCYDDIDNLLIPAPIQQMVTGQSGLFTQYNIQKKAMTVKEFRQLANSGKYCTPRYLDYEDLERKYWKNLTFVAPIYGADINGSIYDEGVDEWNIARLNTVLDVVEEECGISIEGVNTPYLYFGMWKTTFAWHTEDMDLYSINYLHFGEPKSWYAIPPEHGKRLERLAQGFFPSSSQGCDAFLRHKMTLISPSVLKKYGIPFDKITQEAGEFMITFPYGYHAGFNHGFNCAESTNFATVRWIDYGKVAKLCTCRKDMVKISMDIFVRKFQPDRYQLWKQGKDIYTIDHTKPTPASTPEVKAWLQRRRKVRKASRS
Procedure: A total of 2 nM of the human TET2 enzyme (catalogue no. 50162, BPS Bioscience) or 4 nM of the human KDM4C enzyme (catalogue no. 50105, BPS Bioscience) was incubated with the substrate of 30 nM single-stranded DNA (ssBiotin 26 nt Me-C Oligo, Genscript), in the presence of αKG (catalogue no. K3752, Sigma-Aldrich), 10 µM ammonium iron(II) sulphate hexahydrate (catalogue no. F3754, Sigma-Aldrich) in assay buffer (50 mM HEPES (catalogue no. 15630-080, Gibco), pH 7.0, 100 mM NaCl, 0.01% Pluronic F-127, 1 mM TCEP (S16054, Shanghai Yuanye Bio-Technology Company), 2 mM ascorbic acid (A5960, Sigma-Aldrich), 0.2 mg/ml BSA (catalogue no. B2064, Sigma-Aldrich) and 1,000 U ml^−1 catalase (catalogue no. C40, Sigma-Aldrich)). […] The concentration of αKG used in the standard assay was calculated for each enzyme batch and is the concentration of substrate at which half the maximum reaction rate is achieved. […] The product was detected by using a 5 nM anti-5hmC antibody (catalogue no. 39999, Active Motif), 5 nM Eu-Protein A (catalogue no. 61PRAKLB, Cisbio), 6.25 nM streptavidin-Alexa Fluor 647 (catalogue no. S21374, Thermo Fisher Scientific) and 10 mM EDTA (catalogue no. 0369, Sigma-Aldrich). […]
The percentage of inhibition was calculated with the following formula: inhibition% = (1−(signal value per well−average low control)/(average high control−average low control)) × 100. […]

Compound	TCM population (CCR7^hiCD45RO^hi) (human CD8^+ T cells; 7 days of culture with DEG)	effector memory T (TEM) cell population (CCR7^loCD45RO^hi) (human CD8^+ T cells; 7 days of culture with DEG)	cellular HIF-P4H activity ([1]; MEFs, 16 h, increasing concentrations of DEG)	TET2 inhibition (human TET2 enzyme; cell-free, increasing concentrations, maximum 5 mM)	KDM4C inhibition (human KDM4C enzyme; cell-free, DEG alone)	TCM populations (human CD8^+ T cells; glutarate alone (not esterified), higher doses, 10 days of culture)	mode of HIF-P4H-1 inhibition ([1]; MEFs treated 16 h with DEG and dimethyl αKG)	IC50 (human TET2 enzyme; IC50 TET2 + 40× αKG, αKG 4,500 µM (competitive assay))	IC50 (human TET2 enzyme; IC50 recombinant TET2, cell-free)	mode of TET2 inhibition (human TET2 enzyme; reduced inhibition with increased levels of αKG)	IC50 (human KDM4C enzyme)
CCOC(=O)CCCC(=O)OCC [DEG, Diethyl glutarate]	increased the TCM population	decreased	can inhibit	did not inhibit	not capable of inhibiting						
O=C(O)CCCC(=O)O [glutarate, glutaric acid]						capable of increasing TCM populations	αKG-competitive	~5 mM	1.5 mM	competitive with αKG	1 mM
